Laboratory results published in publication PMC12475274, “Harnessing indole scaffolds to identify small-molecule IRE1α inhibitors modulating XBP1 mRNA splicing” (Nature Communications, 2025).
“And” between values parts separate entries of the source, which are not always exact repeats. Equal values may be shown once. Read-outs that look alike come from different tables or passages of the source. Each block holds one compound with its values, some of them ahead of it.

How the values were obtained:
dephosphorylated IRE1α = biological target: T1, dephosphorylated IRE1α (Homo sapiens, UniProt O75460); experiment: Isothermal titration calorimetry (ITC), incl. competitive ITC; type: binding
T1 construct: Human IRE1α kinase and RNase domain (residues 547–977) was subcloned into pLIB plasmid; His tag (with TEV cleavage site) (N, cleaved yes); made in house; host or cells: Sf9 insect cells, baculovirus (Bac-to-Bac)
Procedure: The dephosphorylated IRE1α protein was used directly after purification, ITC experiments were carried out at 25 °C using MicroCal PEAQ-ITC system (Malvern) in buffer 25 mM HEPES pH 7.5, 250 mM NaCl, 1 mM TCEP, 5% glycerol, 1% DMSO. The solution was diluted to a final 1% DMSO in the same buffer as for the protein. Protein and compound solution were degassed before loading to the cell and syringe respectively. Unless otherwise noted, 200 μM of compound was loaded into the syringe and 10 μM of IRE1α protein was loaded into the sample cell. For competitive ITC, the protein was incubated with the indicated compound at 25 °C (final 1% DMSO) before loading to the cell. Instrument settings were: reference power 10 μcal/s, feedback high, stir speed 750 rpm, initial delays 60 s, injection spacing 150 s, injection duration 4 s. All experiments were performed with a single 0.4 μL injection followed by 18 (or 15), 2 μL injections. Data were analyzed using MicroCal PEAQ-ITC analysis software. The one set of sites fitting model is used for the calorimetry data analysis, with cell concentration and syringe concentration as the input parameters. For compound IA01, the N was set to 1 to improve the fit.

[1] = biological target: T2, dephosphorylated IRE1α (547–977) (Homo sapiens, UniProt O75460); experiment: FRET-based IRE1α RNase activity assay, dephosphorylated IRE1α; type: biochemical
T2 construct: Human IRE1α kinase and RNase domain (residues 547–977) was subcloned into pLIB plasmid; His tag (with TEV cleavage site) (N, cleaved yes); made in house; host or cells: Sf9 insect cells, baculovirus (Bac-to-Bac)
Procedure, shortened: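 Dephosphorylated human IRE1α (residues 547–977, Sf9-expressed, λ-phosphatase treated), 40 nM, preincubated 30 min with compound at room temperature, then 100 nM FAM/BHQ1 XBP1 RNA added in HEPES pH 7.5 buffer. Fluorescence (485/535 nm) read kinetically for 1 h; inhibition from linear-phase slopes versus DMSO, fitted to IC50.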

IRE1α = biological target: T3, IRE1α (Homo sapiens, UniProt O75460); experiment: Differential scanning fluorimetry (DSF), IRE1α; type: binding; settings: for IRE1 ∆Tm(°C): Supplementary Fig. 3d/3e, replicate values; for IRE1a ∆Tm: DSF, individual measurements
T3 construct: Human IRE1α kinase and RNase domain (residues 547–977) was subcloned into pLIB plasmid; His tag (with TEV cleavage site) (N, cleaved yes); made in house; host or cells: Sf9 insect cells, baculovirus (Bac-to-Bac)
Procedure: The DSF assay was performed in PBS buffer containing 2 mM DTT, in a total reaction volume of 20 µl with indicated compounds (final 1% DMSO) and the final concentration of 1 µM IRE1α protein and 5× SYPRO Orange fluorescent dye (5000× in DMSO, Sigma S5692). The melting curve was measured at a temperature range from 25 °C to 95 °C and in increments of 1 °C for 30 s using a Bio-Rad CFX96 Real-Time PCR detection system with the FRET scan mode. The melting temperature (Tm) was obtained by fitting the melting curve to Boltzmann sigmoidal in GraphPad Prism and the thermal shift (∆Tm) was calculated by using the equation: ∆Tm = Tm(compound) -Tm(DMSO).

[2] = titrating 200 μM compound into 10 μM IRE1α, no competitor (DMSO), read-out: KD (ITC)
[3] = FRET assay, RNase activity, mean (± SEM), read-out: IRE1α IC50
[4] = FRET assay, source data, unit from Fig. 3 / sheet Fig. 2b, read-out: IRE1a IC50, individual replicates (n1-n4)
[5] = IRE1a, IA34 0.000282 μM, Supplementary Fig. 3b, replicate values
[6] = IRE1a, IA34 1.85185 μM, Supplementary Fig. 3b, replicate values

T2 sequence (O75460 547-977): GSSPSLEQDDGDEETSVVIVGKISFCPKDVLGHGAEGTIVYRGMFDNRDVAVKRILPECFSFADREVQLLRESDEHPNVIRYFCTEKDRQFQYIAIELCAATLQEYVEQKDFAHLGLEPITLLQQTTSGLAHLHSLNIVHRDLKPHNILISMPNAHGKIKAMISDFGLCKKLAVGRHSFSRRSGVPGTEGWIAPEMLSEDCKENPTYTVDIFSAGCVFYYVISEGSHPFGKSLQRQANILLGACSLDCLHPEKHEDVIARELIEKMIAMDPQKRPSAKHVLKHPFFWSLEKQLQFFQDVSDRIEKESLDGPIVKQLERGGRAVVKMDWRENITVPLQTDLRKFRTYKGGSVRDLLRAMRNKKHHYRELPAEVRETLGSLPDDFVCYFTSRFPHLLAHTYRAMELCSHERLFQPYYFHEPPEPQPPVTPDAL
T3 sequence (O75460 547-977): as above
T1 sequence (O75460 547-977): as above

KD (competition ITC) (dephosphorylated IRE1α; G1749 to IRE1α with 1 mM IA107, ND, not detectable): did not show a detectable binding | effect on IRE1α RNase activity in the FRET assay [1]: activating IRE1α activity
SMILES: CCOC(=O)Nc1cccc2c(Oc3ncccc3-c3ccnc(N[C@H]4CCCNC4)n3)c(C)ccc12 [Compound G1749, reference compound]
activity (fold change) ([1]; IRE1a, 5.55556 μM): 6.184 fold change and 6.333 fold change and 5.999 fold change and 6.267 fold change | activity (fold change) ([1]; IRE1a, 16.6667 μM): 6.104 fold change and 5.222 fold change and 7.238 fold change and 6.279 fold change | activity (fold change) ([1]; IRE1a, 50 μM): 5.173 fold change and 5.3757 fold change and 6.203 fold change and 5.356 fold change

stabilization of IRE1α in DSF (IRE1α): concentration-dependently stabilized | IRE1 ∆Tm(°C) (IRE1α; compound 100 μM): 5.27 °C (2×) and 5.25 °C and 5.36 °C | Kd (dephosphorylated IRE1α; [2]): 1820 nM | IC50 [1, 3]: 52 nM and 50 nM | IC50 [1, 4]: 61.7 nM and 34.6 nM and 58.2 nM
SMILES: Cc1c(CCC(=O)O)c2cc(Cl)ccc2n1C(=O)c1ccccc1 [IA141]
IRE1 ∆Tm(°C) (IRE1α; compound 1.563 μM): 0.63 °C and 0.81 °C and 0.65 °C and 0.58 °C | IRE1 ∆Tm(°C) (IRE1α; compound 3.125 μM): 1.12 °C and 1.18 °C and 0.97 °C and 1.08 °C | IRE1 ∆Tm(°C) (IRE1α; compound 6.25 μM): 1.79 °C and 1.73 °C and 1.77 °C and 1.66 °C | IRE1 ∆Tm(°C) (IRE1α; compound 12.5 μM): 2.82 °C and 2.70 °C and 2.75 °C and 2.68 °C | IRE1 ∆Tm(°C) (IRE1α; compound 25 μM): 3.71 °C and 3.59 °C and 3.83 °C and 3.70 °C | IRE1 ∆Tm(°C) (IRE1α; compound 50 μM): 4.64 °C and 4.50 °C and 4.51 °C and 4.69 °C

SMILES: Cc1c(CCC(=O)O)c2cc(Br)ccc2n1C(=O)c1ccccc1 [IA107]
stabilization of IRE1α in DSF (IRE1α): concentration-dependently stabilized | IRE1a ∆Tm (IRE1α; compound 25 μM): 4.2925 °C (2×) and 4.2325 °C and 4.2625 °C | IRE1a ∆Tm (IRE1α; compound 50 μM): 5.1825 °C and 5.3725 °C and 5.2525 °C and 5.2825 °C | IRE1a ∆Tm (IRE1α; compound 100 μM): 5.7825 °C and 5.7925 °C (2×) and 5.8625 °C | Kd (dephosphorylated IRE1α; IA107 to IRE1α with 5 μM G1749, read-out: KD (competitive ITC)): 2250 nM | KD (competitive ITC) (dephosphorylated IRE1α; IA107 to IRE1α with 50 μM G1749, ND, not detectable): did not show detectable binding | KD (competitive ITC) (dephosphorylated IRE1α; IA107 to IRE1α with 200 μM G1749, ND, not detectable): did not show detectable binding | Kd (dephosphorylated IRE1α; [2]): 940 nM | Kd (dephosphorylated IRE1α; titrating 200 μM compound to 20 μM dephosphorylated IRE1α, read-out: KD (ITC)): 1410 nM | increase in potency (IRE1α) ([1]; FRET IC50, reference compound not named): 20 fold | IRE1a inhibition(%), individual measurements ([1]; FRET assay at 16.6667 μM, source data, 16.6667 µM): 96.2448% and 97.4358% and 96.6561% and 93.7071% and 93.3922% and 93.79% and 97.6814% | inhibition at 16.6667 µM ([1]; FRET assay at 16.6667 μM, source data, read-out: IRE1a inhibition(%), individual measurements): 92.4% | IRE1a inhibition(%), individual measurements ([1]; FRET assay at 50 μM, source data, 50 µM): 89.203% and 96.8587% and 95.5081% and 91.4695% and 84.6077% and 86.1159% and 92.8068% | inhibition at 50 µM ([1]; FRET assay at 50 μM, source data, read-out: IRE1a inhibition(%), individual measurements): 91.3% | IC50 [1, 3]: 16 nM and 15.6 nM | IC50 [1, 4]: 15.5 nM and 17 nM and 14.2 nM

stabilization of IRE1α in DSF (IRE1α): did not show any detectable changes | binding to IRE1α in ITC (dephosphorylated IRE1α): no binding signal | IRE1α IC50 ([1]; FRET assay, RNase activity, mean (± SEM)): IC₅₀ not reached | IC50 [1, 3]: > 20000 nM | inhibition at 0.000282 µM [1, 5]: 11% | inhibition(%) [1, 5]: 17.14% and 20.16% and 15.89% | inhibition(%) ([1]; IRE1a, IA34 0.000847 μM, Supplementary Fig. 3b, replicate values): 11.75% and 10.72% and 4.25% and 16.96% | inhibition(%) ([1]; IRE1a, IA34 0.00254 μM, Supplementary Fig. 3b, replicate values): 11.91% and 15.33% and 6.07% and 5.16% | inhibition(%) ([1]; IRE1a, IA34 0.007621 μM, Supplementary Fig. 3b, replicate values): 4.65% and -4.78% and -13.00% and -9.42% | inhibition(%) ([1]; IRE1a, IA34 0.068587 μM, Supplementary Fig. 3b, replicate values): 0.30% and -2.50% and 3.18% and 1.26% | inhibition(%) ([1]; IRE1a, IA34 0.205761 μM, Supplementary Fig. 3b, replicate values): 4.13% and 5.59% and 2.33% and -2.10% | inhibition(%) ([1]; IRE1a, IA34 0.617284 μM, Supplementary Fig. 3b, replicate values): 17.19% and 19.37% and 7.03% and 9.32% | inhibition at 1.85185 µM [1, 6]: 10.8% | inhibition(%) [1, 6]: 18.23% and 17.28% and 17.87% | inhibition(%) ([1]; IRE1a, IA34 5.55556 μM, Supplementary Fig. 3b, replicate values): 27.30% and 30.30% and 1.63% and 11.62% | inhibition(%) ([1]; IRE1a, IA34 16.6667 μM, Supplementary Fig. 3b, replicate values): 11.08% and 14.65% and 30.15% and 29.94% | inhibition(%) ([1]; IRE1a, IA34 50 μM, Supplementary Fig. 3b, replicate values): -1.98% and 7.19% and 5.53% and 17.33%
SMILES: COc1ccc2c(c1)c(CCC(=O)O)c(C)n2C(=O)c1ccc2ccccc2c1 [IA34]
inhibition(%) ([1]; IRE1a, IA34 0.022862 μM, Supplementary Fig. 3b, replicate values): -15.56% and -32.65% and -11.50% and -23.95%

stabilization of IRE1α in DSF (IRE1α): concentration-dependently stabilized | Kd (dephosphorylated IRE1α; [2]): 2990 nM | IC50 [1, 3]: 66 nM and 66.4 nM | IC50 [1, 4]: 90.6 nM and 45.5 nM and 63.2 nM
SMILES: Cc1ccc2c(c1)c(CCC(=O)O)c(C)n2C(=O)c1ccccc1 [IA147]
IRE1 ∆Tm(°C) (IRE1α; compound 1.563 μM): 0.4825 °C (2×) and 0.3925 °C and 0.4425 °C | IRE1 ∆Tm(°C) (IRE1α; compound 3.125 μM): 0.6325 °C and 0.6525 °C and 0.6425 °C and 0.5925 °C | IRE1 ∆Tm(°C) (IRE1α; compound 6.25 μM): 1.0225 °C and 1.5025 °C and 1.2125 °C and 1.1425 °C | IRE1 ∆Tm(°C) (IRE1α; compound 12.5 μM): 1.7325 °C and 2.0725 °C and 1.7925 °C (2×) | IRE1 ∆Tm(°C) (IRE1α; compound 25 μM): 2.7025 °C (2×) and 2.5925 °C and 2.5225 °C | IRE1 ∆Tm(°C) (IRE1α; compound 50 μM): 3.6525 °C and 3.6025 °C and 3.6325 °C and 3.5325 °C | IRE1 ∆Tm(°C) (IRE1α; compound 100 μM): 4.5725 °C and 4.5025 °C and 4.4925 °C and 4.4625 °C
